# Reference: article PMC10526274, “Epithelial-Immune Cell Crosstalk Determines the Activation of Immune Cells In Vitro by the Human Cathelicidin LL-37 at Low Physiological Concentrations” (Biomolecules, 2023)
# “And” between values parts separate entries of the source, which are not always exact repeats. Identical values can stand only once.
# System: Caco-2/moDCs co-culture
# Assay: Multiplex xMAP cytokine levels, Caco-2/moDCs co-culture stimulated with LL-37
# Assay type: cell-based, human
# Details: moDCs/Caco-2 co-culture, 1 µM LL-37, 24 h, n=2
# Description: Caco-2 cell line (ATCC HTB-37) was cultured in a humidified CO2-incubator (5% CO2, 37 °C) in the complete DMEM/F12 (1:1) medium (Gibco, Waltham, MA, USA) containing 10% fetal bovine serum (FBS, Gibco) and 1X antibiotic–antimycotic solution (Gibco). To stabilize the cell phenotype, Caco-2 cells have been subcultivated three times before seeding on the filter supports. Then, Caco-2 cells were seeded at a density of 2 × 10^5 cells/cm^2 onto 24-well Millicell cell culture inserts (PC, 0.4-μm pore size, 0.6 cm^2 surface area, cat. #PIHP01250) (Millipore, Burlington, MA, USA), precoated with 0.2% bovine gelatin (Sigma-Aldrich, Saint Louis, MO, USA). After seeding, Caco-2 cells were grown in the same complete medium with re-feeding every 2–3 days until polarization of the monolayer occurred. The functional polarity of the monolayers was developed when transepithelial electrical resistance (TEER) between the apical and basolateral surfaces of the monolayers reached […] as measured by the electrical resistance system Millicell-ERS Voltohmmeter (Millipore, Burlington, MA, USA). Grown cell monolayers were used in transport and cytokine production experiments between the 21st and 29th days.
# Peripheral blood mononuclear cells (PBMCs) from a healthy donor were purchased from the American Type Culture Collection (ATCC PCS-800-011). Blood monocytes were isolated from PBMCs by plastic adhesion. Mature monocyte-derived dendritic cells (moDCs) were generated in vitro from peripheral blood monocytes, according to Nair et al.. Briefly, monocytes were cultured in a humidified CO2-incubator (5% CO2, 37 °C) in the complete RPMI-1640 medium (Gibco) with 10% FBS, antibiotics, and supplemented with a cytokine cocktail containing 500 U/mL rhIL-4 and 800 U/mL rhGM-CSF (both Sci-Store, Moscow, Russia). On the third day, the medium was replaced by the same fresh medium with FBS, antibiotics, and the cytokine cocktail. Induction of maturation of the immature monocyte-derived dendritic cells was performed on the 5th day by replacing the medium with the complete RPMI-1640 medium (Gibco) with 10% FBS and antibiotics, supplemented with a cytokine cocktail containing 500 U/mL rhIL-4, 800 U/mL rhGM-CSF (both Sci-Store, Moscow, Russia), and 100 U/mL rhTNF-α (Sigma-Aldrich), and subjected to subsequent incubation of the culture for 4 more days.
# Primary blood monocytes, moDCs, and NKT cells were seeded in 600 µL of complete RPMI-1640 with 10% Human AB serum (Capricorn Scientific, Ebsdorfergrund, Germany) and supplemented with 1X antibiotic–antimycotic solution into the wells of 24-well plates at a density of 3–7 × 10^5 cells/well 24 h before the experiment. Then, 24 h later, the medium in each well was replaced by the same medium with 1 µM of LL-37 for the sample wells or fresh medium alone for the control wells, and the permeable inserts with the Caco-2 monolayer with TEER > 400 Ω × cm^2, containing 400 μL of the complete medium in their apical chamber, were immediately placed into the appropriate wells. Also, inserts with the Caco-2 monolayer were placed in cell-free wells of 24-well plates in the same complete RPMI-1640 medium with or without 1 µM of LL-37 as controls. Cells were kept in a CO2-incubator (5% CO2, 37 °C) for another 24 h. Then, culture medium from each well was collected, centrifuged, and frozen at −70 °C.
# To quantitatively evaluate a broad spectrum of analytes secreted by human cell cultures at the protein level, multiplex xMAP technology was used. […]
substance,measurement,setting,value
"LL-37: the only human cathelicidin, host defense antimicrobial peptide of 37 a.a. residues, produced by solid-phase peptide synthesis",IL-2 level,control 0.75,1.12 pg/mL
same,FLT-3L level,control 0.87,0.93 pg/mL
same,IL-3 level,control 0.91,0.91 pg/mL
same,IFNg level,control 2,2.28 pg/mL
same,IL-18 level,control 2.49,1.42 pg/mL
same,IL-15 level,control 3.19,3.42 pg/mL
same,IL-4 level,control 4.19,6.58 pg/mL
same,IL-5 level,control 4.46,2.93 pg/mL
same,TGF-a level,control 5.8,5.22 pg/mL
same,IL-1b level,control 5.83,5.83 pg/mL
same,EGF level,control 6.26,6.51 pg/mL
same,IL-9 level,control 7.45,7.45 pg/mL
same,IFNa2 level,control 8.64,10.16 pg/mL
same,TNFb level,control 9.34,15.39 pg/mL
same,GM-CSF level,control 10.7,8.75 pg/mL
same,IL-1RA level,control 11.1,13.57 pg/mL
same,G-CSF level,control 16.25,14.89 pg/mL
same,Fractalkine level,control 22.95,25.92 pg/mL
same,IL-6 level,control 23.82,26.83 pg/mL
same,IL-22 level,"control 26.11, p = 0.10",37 pg/mL and 37.22 pg/mL
same,TNFa level,control 41.39,44.26 pg/mL
same,IL-13 level,control 43.59,50.71 pg/mL
same,FGF-2 level,control 47.27,47.27 pg/mL
same,IL-12 (p40) level,control 57.35,55.01 pg/mL
same,GROa level,control 60.81,70.33 pg/mL
same,IL-27 level,control 63.66,70.72 pg/mL
same,PDGF-AB/BB level,control 72.4,83.52 pg/mL
same,IL-10 level,"control 81.69, p = 0.0035",52 pg/mL and 52.63 pg/mL
same,IP-10 level,control 90.92,118.06 pg/mL
same,sCD40L level,control 95.47,95.47 pg/mL
same,RANTES level,control 142.05,223.43 pg/mL
same,M-GSF level,control 168.7,172.56 pg/mL
same,PDGF-AA level,control 252.85,237.55 pg/mL
same,MCP-3 level,control 376.42,372.12 pg/mL
same,VEGFa level,control 723.09,1786 pg/mL
same,MIP-1a level,control 1271,1487 pg/mL
same,MIP-1b level,control 1340,1789 pg/mL
same,MCP-1 level,control 2519,1925 pg/mL
same,IL-8 level,control 2799,3052 pg/mL
same,MIG level,control 25746,25834 pg/mL
same,IL-7 level,control <0.30,<0.30↓ pg/ml
same,IL-17A level,control <0.70,<0.70↓ pg/ml
same,IL-1a level,control <1.30,<1.30↓ pg/ml
same,IL-12 (p70) level,control <1.71,<1.71↓ pg/ml
same,Eotaxin level,control <2.91,3.03 pg/mL
same,IL-17F level,control <12.19,<12.19↓ pg/ml
same,IL-17E/IL-25 level,control <19.43,<19.43↓ pg/ml
same,MDC level,control >14590,6291 pg/mL
